The values that follow are results of earlier work, collected in US20200397820A1, “Glycerol Release Promoter” (KOHAKU BIO TECHNOLOGY CO., LTD., priority 2018, published 2020).

The data set has as its system cultured adipocytes. As to conditions: Patent Literature 10.

Turning to `C[C@@]12C[C@@]3(O)O[C@@H](O1)[C@]1(COC(=O)c4ccccc4)[C@H]3C[C@@]12O[C@@H]1O[C@H](CO)[C@@H](O)[C@H](O)[C@H]1O` [Paeoniflorin], the “release of glycerol into the culture medium” value was “promotes the release of glycerol”.
